Patent US8263649B2, “Benzofuran type derivatives, a composition comprising the same for treating or preventing cognitive dysfunction and the use thereof” (Medifron DBT Co., Ltd., priority 2006, dated 2012)

Legend:
beta amyloid 1-42 = molecular target: T1, beta amyloid 1-42 (Homo sapiens, UniProt P05067); test: Inhibition test of beta amyloid aggregation (Thioflavin T fluorescence); type: biochemical; details: FIG. 1
T1 construct: Synthetic beta amyloid 1-42 (BACHEM); purchased BACHEM; host or cells: synthetic peptide
Procedure: Synthetic beta amyloid 1-42 (BACHEM) was dissolved in DMSO in order to 250 μm solution and diluted with PBS into 1/10 on fluorescent black plate to induce aggregation. By comparing with inhibition activity of the tanshinone compounds prepared in Example 1 on beta amyloid aggregation, the test sample showing more than 50% inhibition activity at 10 μg/ml was chosen to use and added to react for 1 hour at room temperature. ThT (Thioflavin T) was diluted with 50 mM glycine buffer solution and the diluted solution was added to each well by 150 μl/well. The absorbance was determined by microplate reader (SAFIRE, TECAN) at 450 nm excitation wavelength/480 nm emission wavelength and the inhibition activity of the test sample on beta amyloid aggregation was transformed into IC50.

[1] = system: HT22 mouse neuronal cell line treated with aggregated beta amyloid 25-35; test: Inhibition test of beta amyloid toxicity (MTT); type: cell-based; details: HT22 cells, 25 μm aggregated beta amyloid 25-35, 18 hours
Procedure: To determine the inhibitory activity of the compounds prepared in Examples on beta-amyloid toxicity, following test was performed according to the procedure disclosed in the literature (Gillardon, F. et al., Brain Research, 706(1), pp. 169-172, 1996).
HT22 mouse neuronal cell line was incubated in DMEM (Dulbecco's Modified Eagle's Medium, Gibco-BRL) medium supplemented with 10% FBS (Fetal Bovine Serum, Hyclone) and 1% penicillin/streptomycin (Sigma Co.). Prior to test, HT22 cell was incubated on 96 well plates with a density of 5×10^3 cell/well and further incubated in serum free DMEM medium for 1 hour before the treatment of test sample. Various concentration of compounds prepared in Examples used as a test sample was added thereto and incubated for 1 hour. Aggregated beta amyloid 25-35 (US peptide) was treated thereto to the concentration of 25 μm and incubated for 18 hours to induce cell necrosis. 5 mg/ml of MTT (3-(4,5-dimethyl-2-thiazolyl)-2,5-diphenyl-2H-tetrazolium bromide) solution was added each well with 15 μl/well and the well was incubated for 4 hours. Dissolving buffer solution (10% SDS, 50% dimethyl formamide, pH 4.7) was added to each well with 100 μl/well and reacted for overnight. 18 hours after the reaction, the absorbance of solution was determined by microplate reader (SAFIRE, TECAN) at 570 nm/630 nm wavelength (Gillardon, F. et al., Brain Research, 706(1) pp 169-172, 1996).

T1 sequence (P05067 672-713): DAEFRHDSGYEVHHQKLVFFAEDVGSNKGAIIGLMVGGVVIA

| SMILES | melting point [°C] | inhibitory effect on the aggregation of beta amyloid (beta amyloid 1-42) | inhibition effect on beta-amyloid toxicity [1] |
| --- | --- | --- | --- |
| COCCc1ccc2oc(-c3ccc(O)c(OC)c3)c(SC)c2c1 [Compound 15a, 2-methoxy-4-[5-(2-methoxy-ethyl)-3-methylsulfanyl-benzofuran-2-yl]-phenol] | 67 | potent inhibition effect | potent inhibition effect |
| COCCCc1ccc2oc(-c3ccc(O)c(OC)c3)c(SC)c2c1 [Compound 15b, 2-methoxy-4-[5-(3-methoxy-propyl)-3-methylsulfanyl-benzofuran-2yl]-phenol] | – | potent inhibition effect | potent inhibition effect |
| COCCc1ccc2oc(-c3ccc(OC)c(OC)c3)cc2c1 [Compound 18a, 2-(3,4-dimethoxy-phenyl)-5-(2-methoxy-ethyl)-benzofuran] | 81 | – | – |
| COC(=O)Cc1ccc2oc(-c3ccc(OC)c(OC)c3)c(SC)c2c1 [Compound 31a, [2-(3,4-dimethoxy-phenyl)-3-(methylsulfanyl)-benzofuran-5-yl)acetic acid methyl ester] | 91 | – | – |
| COc1ccc(-c2cc3cc(CCO)ccc3o2)cc1OC [Compound 40a, 2-[2-(3,4-dimethoxy-phenyl)-benzofuran-5-yl]-ethanol] | 122 | – | – |
| COC(=O)Cc1ccc2oc(-c3ccc(OC)c(OC)c3)cc2c1 [Compound 32a, [2-(3,4-dimethoxyphenyl)-benzofuran-5-yl]acetic acid methyl ester] | 119 | – | – |
| COc1ccc(-c2oc3ccc(CC(=O)N4CCN(Cc5ccccc5)CC4)cc3c2SC)cc1OC | 70 | – | – |
| COc1ccc(-c2oc3ccc(CCO)cc3c2SC)cc1OC [Compound 39a, 2-[2-(3,4-dimethoxy-phenyl)-3-methylsulfanyl-benzofuran-5-yl]-ethanol] | 96 | – | – |
| COCCc1ccc2oc(-c3ccc(OCOC)c(OC)c3)c(SC)c2c1 [Compound 14a, 5-(2-methoxy-ethyl)-2-(3-methoxy-4-methoxymethoxy-phenyl)-3-methylsulfanyl-benzofuran] | 70 | – | – |
| COc1ccc(-c2oc3ccc(CC(=O)N4CCN(c5ccccc5)CC4)cc3c2SC)cc1OC [Compound 37a, 2-[2-(3,4-dimethoxy-phenyl)-3-methylsulfanyl-benzofuran-5-yl)-1-(4-phenyl-piperazin-1-yl)-ethanone] | 160 | – | – |
| COCCc1ccc2oc(-c3ccc(O)c(OC)c3)cc2c1 [Compound 16a, 2-methoxy-4-[5-(2-methoxy-ethyl)-benzofuran-2yl]-phenol] | 180 | – | – |
| COc1ccc(-c2oc3ccc(CC(=O)O)cc3c2SC)cc1OC [Compound 33a, [2-(3,4-dimethoxy-phenyl)-3-methylsulfanyl-benzofuran-5-yl]-acetic acid] | 165 | – | – |
| COc1ccc(-c2cc3cc(CC(=O)O)ccc3o2)cc1OC [Compound 34a, [2-(3,4-dimethoxy-phenyl)-benzofuran-5-yl]-acetic acid] | 202 | – | – |
| COCCc1ccc2oc(-c3ccc(OC)c(OC)c3)c(SC)c2c1 [Compound 17a, 2-(3,4-dimethoxy-phenyl)-5-(2-methoxy-ethyl)-3-methylsulfanyl-benzofuran] | 61 | – | – |
